Laboratory results from ChEMBL document CHEMBL1136988, “1-amino-4-benzylphthalazines as orally bioavailable smoothened antagonists with antitumor activity” (J Med Chem, 2009).

Columns and labels:
[1] = target: Protein smoothened (Homo sapiens, UniProt Q99835); assay: Displacement of [3H]3-chloro-4,7-difluoro-N-(4-methoxy-3-(pyridin-4-yl)benzyl)-N-(4-(methylamino)cyclohexyl)benzo[b]thiophene-2-carboxamide from human Smoothened receptor expressed in CHO-K1 cells by membrane filter binding assay; format: cell-based
Sequence of Protein smoothened (Homo sapiens, UniProt Q99835) (Q99835 whole entry): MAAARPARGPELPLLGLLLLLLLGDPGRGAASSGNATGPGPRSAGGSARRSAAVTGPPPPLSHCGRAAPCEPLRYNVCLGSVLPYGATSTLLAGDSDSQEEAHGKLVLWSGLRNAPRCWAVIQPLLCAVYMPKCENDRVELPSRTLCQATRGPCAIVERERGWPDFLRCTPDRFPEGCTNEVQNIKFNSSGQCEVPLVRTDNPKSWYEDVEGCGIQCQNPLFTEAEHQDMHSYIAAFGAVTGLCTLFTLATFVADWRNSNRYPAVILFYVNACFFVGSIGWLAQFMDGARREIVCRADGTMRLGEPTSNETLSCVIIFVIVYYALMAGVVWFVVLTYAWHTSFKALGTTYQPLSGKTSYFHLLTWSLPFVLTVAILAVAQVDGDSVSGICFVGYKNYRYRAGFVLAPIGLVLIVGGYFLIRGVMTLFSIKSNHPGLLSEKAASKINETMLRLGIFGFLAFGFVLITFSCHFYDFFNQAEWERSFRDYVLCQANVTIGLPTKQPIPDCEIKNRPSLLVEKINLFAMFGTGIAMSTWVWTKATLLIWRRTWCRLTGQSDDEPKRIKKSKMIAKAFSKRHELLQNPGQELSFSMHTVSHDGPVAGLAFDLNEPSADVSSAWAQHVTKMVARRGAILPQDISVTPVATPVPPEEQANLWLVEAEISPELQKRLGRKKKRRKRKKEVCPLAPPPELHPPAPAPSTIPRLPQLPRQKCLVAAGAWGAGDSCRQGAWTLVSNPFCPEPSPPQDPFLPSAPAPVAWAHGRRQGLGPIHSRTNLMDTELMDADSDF

[2] = target: T1, Protein smoothened (Mus musculus, UniProt P56726); assay: Inhibition of Smoothened receptor in mouse TM3 cells transfected with pTA-8xGli-Luc reporter gene assessed as inhibition of 1 nM 3-chloro-4,7-difluoro-N-(4-methoxy-3-(pyridin-4-yl)benzyl)-N-(4-(methylamino)cyclohexyl)benzo[b]thiophene-2-carboxamide-induced Hedgehog pathway activation by Gli shift assay; format: cell-based
T1 sequence (P56726 whole entry): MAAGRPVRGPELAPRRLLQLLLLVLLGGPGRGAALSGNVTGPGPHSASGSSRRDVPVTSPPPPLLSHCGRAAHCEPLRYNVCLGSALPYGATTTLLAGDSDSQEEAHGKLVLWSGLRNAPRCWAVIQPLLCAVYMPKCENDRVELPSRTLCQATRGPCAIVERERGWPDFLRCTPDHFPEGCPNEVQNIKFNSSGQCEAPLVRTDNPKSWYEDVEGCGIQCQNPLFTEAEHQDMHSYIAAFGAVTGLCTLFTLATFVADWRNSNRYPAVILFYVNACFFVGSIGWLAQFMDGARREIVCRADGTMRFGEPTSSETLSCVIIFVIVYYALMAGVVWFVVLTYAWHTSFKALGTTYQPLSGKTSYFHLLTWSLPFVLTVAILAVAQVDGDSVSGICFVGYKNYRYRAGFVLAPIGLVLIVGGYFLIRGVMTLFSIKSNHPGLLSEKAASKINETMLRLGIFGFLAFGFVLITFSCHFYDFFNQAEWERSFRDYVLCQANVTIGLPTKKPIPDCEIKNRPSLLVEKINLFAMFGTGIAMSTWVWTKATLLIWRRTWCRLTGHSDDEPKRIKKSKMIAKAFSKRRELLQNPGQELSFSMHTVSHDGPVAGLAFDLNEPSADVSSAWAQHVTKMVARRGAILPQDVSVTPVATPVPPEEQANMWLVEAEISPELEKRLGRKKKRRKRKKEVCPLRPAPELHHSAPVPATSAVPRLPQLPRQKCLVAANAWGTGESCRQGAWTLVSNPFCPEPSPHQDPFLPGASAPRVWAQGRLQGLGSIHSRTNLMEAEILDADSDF

[3] = target: T1, Protein smoothened; format: cell-based, TM3
Description: Inhibition of Smoothened receptor in mouse TM3 cells transfected with pTA-8xGli-Luc reporter gene assessed as inhibition of 25 nM 3-chloro-4,7-difluoro-N-(4-methoxy-3-(pyridin-4-yl)benzyl)-N-(4-(methylamino)cyclohexyl)benzo[b]thiophene-2-carboxamide-induced Hedgehog pathway activation by Gli shift assay

[4] = target: T1, Protein smoothened; assay: Displacement of [3H]3-chloro-4,7-difluoro-N-(4-methoxy-3-(pyridin-4-yl)benzyl)-N-(4-(methylamino)cyclohexyl)benzo[b]thiophene-2-carboxamide from mouse Smoothened receptor expressed in CHO-K1 cells by membrane filter binding assay; format: cell-based

Structure (SMILES)	IC50 [1] [nM]	IC50 [2] [nM]	IC50 [3] [nM]	IC50 [4] [nM]
N#Cc1ccc(N2CCN(c3nnc(Cc4cccc(Cl)c4)c4ccccc34)CC2)nc1	82	112	693	54
C[C@H]1CN(c2nnc(Cc3ccccc3)c3ccccc23)CCN1c1ccc(C#N)cn1	59	79	735	66
FC(F)(F)c1ccc(N2CCN(c3nnc(Cc4ccccc4)c4ccoc34)CC2)nc1	> 5000	1800	> 5000	> 5000
N#Cc1ccc(N2CCN(c3nnc(Cc4ccc(Cl)cc4)c4ccccc34)CC2)nc1	25	48	498	20
C[C@@H]1CN(c2ccc(C#N)cn2)CCN1c1nnc(Cc2ccccc2)c2ccccc12	217	86	738	180
CC(O)(CO)c1ccc(N2CCN(c3nnc(Cc4ccccc4)c4ccccc34)CC2)nc1 (racemic)	70	17	136	28
CC(O)c1ccc(N2CCN(c3nnc(Cc4ccccc4)c4ccccc34)CC2)nc1 (stereo not drawn)	67	38	222	61
FC(F)(F)c1ccc(N2CCN(c3nnc(Cc4ccccc4)c4[nH]cnc34)CC2)nc1	> 5000	724	1550	> 5000
N#Cc1ccc(C2CCN(c3nnc(Cc4ccccc4)c4ccccc34)CC2)cc1	> 5000	3780	> 5000	> 5000
N#Cc1ccc(N2CCN(c3ncc(Cc4ccccc4)c4ccccc34)CC2)nc1	> 5000	1430	2990	> 5000
N#Cc1ccc(N2CCN(c3nnc(Cc4ccc(F)cc4)c4ccccc34)CC2)nc1	103	112	975	69
N#Cc1ccc(Cc2nnc(N3CCN(c4ccc(C#N)cn4)CC3)c3ccccc23)cc1	34	20	256	23
OCc1ccc(N2CCN(c3nnc(Cc4ccccc4)c4ccccc34)CC2)nc1	484	374	2450	187
NC(=O)c1ccc(N2CCN(c3nnc(Cc4ccccc4)c4ccccc34)CC2)nc1	724	46	149	173
c1ccc(Cc2nnc(N3CCN(c4ccccn4)CC3)c3ccccc23)cc1	1240	258	772	643
C[C@H]1CN(c2ccc(C#N)cn2)CCN1c1nnc(Cc2ccccc2)c2ccccc12	17	25	210	22
FC(F)(F)c1ccc(N2CCN(c3nnc(Cc4ccccc4)c4ccccc34)CC2)nc1	95	134	1330	74
